Test results taken from patent US8404696B2, “Quinazoline-2,4-dione derivative, and medical compositions for the prophylaxis and treatment of cranial nerve disease containing the same” (Shin Poong Pharmaceutical Co., Ltd., priority 2008, dated 2013).

What was measured:
[1] = tested on: middle cerebral artery occlusion (MCAO) model; experiment: Anti-stroke effect in middle cerebral artery occlusion (MCAO) model, oral administration before inducing stroke; type: in vivo, rats of SD species; conditions: 100 mg/kg po; for Infarcted volume (Mean ± standard deviation): negative control 0.45 ± 0.03
thoracic aorta of rats = experiment: Relaxing effect on thoracic aorta contracted by phenylephrine (organ bath); design: species or system rats of SD species; conditions: for Relaxation percentage (Mean ± standard deviation): n = 3
In short: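 Thoracic aortic rings (2 mm) from ether-anesthetized male SD rats (250-300 g) were mounted in Krebs buffer gassed with 95% O2/5% CO2 and equilibrated at 1.0 g basal tension for 90 min. After stable contraction with phenylephrine (0.5 μM), compounds were added and relaxation recorded.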

SH-SY5Y cells = experiment: Inhibitory effect on ZnSO4-mediated cytotoxicity (MTT assay); type: cell-based, humans; conditions: compound 50 μg/ml; 600 μM zinc sulfate, 24 hours
Description: SH-SY5Y cells were cultured with 3×10^4 cell concentration in 96 well plates, and the compound (50 μg/ml) was treated. After 30 minutes, 600 μM of zinc sulfate was treated to induce toxicity for 24 hours and survival rate of cells was measured by MTT assay.

[2] = tested on: superoxide dismutase (SOD); experiment: Increase of superoxide dismutase (SOD) activity in mouse brain cells; type: cell-based; conditions: 100 μg/ml
Description: ROS inhibitory effect of compounds was represented to the dose suppressing 50% of production of reactive oxygen compared to control. […] The activity of superoxide dismutase (SOD) was measured by using a kit acquired in Sigma.

[3] = tested on: pentylentetrazole (PTZ)-induced convulsion; experiment: Anti-convulsant effect, pentylentetrazole (PTZ) test; type: in vivo; conditions: 10 mg/kg intraperitoneally, PTZ 80 mg/kg subcutaneously
In short: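 Compound was given intraperitoneally at 10 mg/kg before PTZ challenge. The read-outs were time to convulsion onset, time until convulsions fully disappeared, and mortality.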

[4] = tested on: mixed culture of nerve cells-glial cells; experiment: Protecting effect on NMDA-induced nerve cell death (LDH release); type: cell-based, ICR mouse; conditions: 100 μM NMDA, LDH release after 24 hours
In short: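 Embryonic day-14 ICR mouse cortical neurons seeded on cortical glia, Ara-C-treated, then exposed at day 12–15 for 20 min to 100 μM NMDA with compound at 1 or 2 μg/mL. LDH released 24 h later measured colorimetrically as a cell-death index.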

[5] = treatment time 0 (right before inducing ischemic stroke)
[6] = treatment time 1 (an hour before inducing ischemic stroke)

SMILES: CC(=O)N(CCCCNCCCn1c(=O)[nH]c2ccccc2c1=O)CCCn1c(=O)[nH]c2ccccc2c1=O [Compound 3, N-[3-(2,4-dioxo-1,4-dihydro-2H-quinazolin-3-yl)propyl]-N-{4-[3-(2,4-dioxo-1,4-dihydro-2H-quinazolin-3-yl)propylamino]butyl}acetamide]
- Inhibitory percentage compared to negative control [1, 5]: 69.8%
- Infarcted volume (Mean ± standard deviation) [1, 5]: 0.14 ± 0.02 cm^3
- Inhibitory percentage compared to negative control [1, 6]: 22.3%
- Infarcted volume (Mean ± standard deviation) [1, 6]: 0.35 ± 0.07 cm^3
- Relaxation percentage (Mean ± standard deviation) (thoracic aorta of rats; 50 μg/mL, phenylephrine 0.5 μM): 16.2 ± 4.4%
- Relaxation percentage (Mean ± standard deviation) (thoracic aorta of rats; 100 μg/mL, phenylephrine 0.5 μM): 44.2 ± 8.5%
- Relaxation percentage (Mean ± standard deviation) (thoracic aorta of rats; 200 μg/mL, phenylephrine 0.5 μM): 65.6 ± 7.1%
- Relaxation of thoracic aorta contracted by phenylephrine, dose dependence (thoracic aorta of rats; 50, 100 and 200 μg/mL): dose-dependently relaxed the thoracic aorta of rats contracted by phenylephrine
- inhibition at 67 µg/mL (thoracic aorta of rats; Rattus norvegicus, 67 μg/mL, phenylephrine 0.5 μM, mean n = 3, read-out: Relaxation percentage): 27.4%
- inhibitory percentage, zinc-induced toxicity (SH-SY5Y cells): 17.6 ± 3.5%
- Increase of SOD activity, compared to control [2]: 3.2 ± 2.7
- mortality rate ([3]; (animals/total), negative control 70(17/23)): 17(2/12) %
- Induction percentage of convulsion ([3]; (animals/total), negative control 100(23/23)): 50(6/12) %
- Initiation time of convulsion ([3]; negative control 5.0 ± 0.7): 34.7 ± 7.7 min
- Duration of convulsion ([3]; negative control 46.7 ± 3.3): 11.8 ± 5.6 min
- Inhibitory effect of cell death by NMDA-induced excitable neurotoxicity ([4]; 1 μg/ml compound): 45.5%
- Inhibitory effect of cell death by NMDA-induced excitable neurotoxicity ([4]; 2 μg/ml compound): 54.4%
